Laboratory results reported in the OligoGym collection.
Only the 19 paired bases of each siRNA are shown; overhangs and chemistry are not given here.

Each substance was assayed against firefly luciferase (assay: five studies, different assays). Settings: siRNA.
Note: test concentration or dose not given here.

| Substance | target inhibition [%] |
| --- | --- |
| sense GGUAAAGUUGUUCCAUUUU / antisense AAAAUGGAACAACUUUACC | 94.5 |
| sense AAAGGUCUUACCGGAAAAC / antisense GUUUUCCGGUAAGACCUUU | 71.1 |
| sense GAUUAUGUCCGGUUAUGUA / antisense UACAUAACCGGACAUAAUC | 96.8 |
| sense CGUGGAUUACGUCGCCAGU / antisense ACUGGCGACGUAAUCCACG | 87.1 |
| sense GCGCGGAGGAGUUGUGUUU / antisense AAACACAACUCCUCCGCGC | 86.8 |
| sense GAGUUGUGUUUGUGGACGA / antisense UCGUCCACAAACACAACUC | 95.3 |
| sense AAGUACCGAAAGGUCUUAC / antisense GUAAGACCUUUCGGUACUU | 64.3 |
| sense AACUUCCCGCCGCCGUUGU / antisense ACAACGGCGGCGGGAAGUU | 18.4 |
| sense AAGAAAAAUCAGAGAGAUC / antisense GAUCUCUCUGAUUUUUCUU | 68.1 |
| sense GGUUUUGGAAUGUUUACUA / antisense UAGUAAACAUUCCAAAACC | 93.3 |
| sense GGAAAACUCGACGCAAGAA / antisense UUCUUGCGUCGAGUUUUCC | 92.7 |
| sense UUGCGCGGAGGAGUUGUGU / antisense ACACAACUCCUCCGCGCAA | 24.9 |
| sense UUUGUGGACGAAGUACCGA / antisense UCGGUACUUCGUCCACAAA | -18 |
| sense UAUGCCGGUGUUGGGCGCG / antisense CGCGCCCAACACCGGCAUA | 19.7 |
| sense CAAAUACGAUUUAUCUAAU / antisense AUUAGAUAAAUCGUAUUUG | 87.8 |
| sense AGUCAAGUAACAACCGCGA / antisense UCGCGGUUGUUACUUGACU | 88.5 |
| sense GAGCACGGAAAGACGAUGA / antisense UCAUCGUCUUUCCGUGCUC | 20.3 |
| sense GAUUACGUCGCCAGUCAAG / antisense CUUGACUGGCGACGUAAUC | 96 |
| sense GCCUGAAGUCUCUGAUUAA / antisense UUAAUCAGAGACUUCAGGC | 95.6 |
| sense UCAAGUAACAACCGCGAAA / antisense UUUCGCGGUUGUUACUUGA | 88.5 |
| sense AAAGUUGCGCGGAGGAGUU / antisense AACUCCUCCGCGCAACUUU | 95.5 |
| sense AGGAGUUGUGUUUGUGGAC / antisense GUCCACAAACACAACUCCU | 87.5 |
| sense GAAAAAUCAGAGAGAUCCU / antisense AGGAUCUCUCUGAUUUUUC | 86.8 |
| sense GGAGGAGUUGUGUUUGUGG / antisense CCACAAACACAACUCCUCC | 93.2 |

| Substance | target inhibition [%] |
| --- | --- |
| sense AUCCUCAUAAAGGCCAAGA / antisense UCUUGGCCUUUAUGAGGAU | -12.8 |
| sense AAAACUCGACGCAAGAAAA / antisense UUUUCUUGCGUCGAGUUUU | 94.6 |
| sense AUCCGCUGGAAGAUGGAAC / antisense GUUCCAUCUUCCAGCGGAU | 23.4 |
| sense CGCCGCCGUUGUUGUUUUG / antisense CAAAACAACAACGGCGGCG | 51.3 |
| sense AAAGACGAUGACGGAAAAA / antisense UUUUUCCGUCAUCGUCUUU | 73.9 |
| sense CGCCAGUCAAGUAACAACC / antisense GGUUGUUACUUGACUGGCG | 79.5 |
| sense UACUACACUCGGAUAUUUG / antisense CAAAUAUCCGAGUGUAGUA | 38.6 |
| sense UGUUGUUUUGGAGCACGGA / antisense UCCGUGCUCCAAAACAACA | 82.5 |
| sense GCAUGCCAGAGAUCCUAUU / antisense AAUAGGAUCUCUGGCAUGC | 94.5 |
| sense CCGGAAAACUCGACGCAAG / antisense CUUGCGUCGAGUUUUCCGG | 94.9 |
| sense ACGAUGACGGAAAAAGAGA / antisense UCUCUUUUUCCGUCAUCGU | 80.7 |
| sense AUGGAACCGCUGGAGAGCA / antisense UGCUCUCCAGCGGUUCCAU | 35.4 |
| sense UGGACGAAGUACCGAAAGG / antisense CCUUUCGGUACUUCGUCCA | 70.3 |
| sense AUCGUGGAUUACGUCGCCA / antisense UGGCGACGUAAUCCACGAU | 44.2 |
| sense UCCCGCCGCCGUUGUUGUU / antisense AACAACAACGGCGGCGGGA | 43.8 |
| sense GUCGCUCUGCCUCAUAGAA / antisense UUCUAUGAGGCAGAGCGAC | 69.9 |
| sense CUUACCGGAAAACUCGACG / antisense CGUCGAGUUUUCCGGUAAG | 94.3 |
| sense AAUCAGAGAGAUCCUCAUA / antisense UAUGAGGAUCUCUCUGAUU | 91.7 |
| sense GGGCGCGGUCGGUAAAGUU / antisense AACUUUACCGACCGCGCCC | 93.6 |
| sense AAGGCCCGGCGCCAUUCUA / antisense UAGAAUGGCGCCGGGCCUU | 23 |
| sense UUUGGAGCACGGAAAGACG / antisense CGUCUUUCCGUGCUCCAAA | -10.4 |
| sense GGAUGGAUGGCUACAUUCU / antisense AGAAUGUAGCCAUCCAUCC | 97.4 |
| sense ACGGAAAAAGAGAUCGUGG / antisense CCACGAUCUCUUUUUCCGU | 58.8 |
| sense ACGCCAAAAACAUAAAGAA / antisense UUCUUUAUGUUUUUGGCGU | 94.9 |

These substances were tested against PPIB (assay: five studies, different assays). Settings: siRNA.

| Substance | target inhibition [%] |
| --- | --- |
| sense AAUUUUGUGGCCUUAGCUA / antisense UAGCUAAGGCCACAAAAUU | 81.3 |
| sense AGAACUUCAAACUGAAGCA / antisense UGCUUCAGUUUGAAGUUCU | 45.4 |
| sense CUUCAUGAUCCAGGGCGGA / antisense UCCGCCCUGGAUCAUGAAG | 88.7 |
| sense GGGAGAUGGCACAGGAGGA / antisense UCCUCCUGUGCCAUCUCCC | 80.4 |
| sense AACAGUGGAUAAUUUUGUG / antisense CACAAAAUUAUCCACUGUU | 16.3 |
| sense GAAAGGAUUUGGCUACAAA / antisense UUUGUAGCCAAAUCCUUUC | 94.2 |
| sense AGAGCAUCUACGGUGAGCG / antisense CGCUCACCGUAGAUGCUCU | 71.7 |
| sense AGCAUCUACGGUGAGCGCU / antisense AGCGCUCACCGUAGAUGCU | 64.1 |
| sense GUUCCAAAAACAGUGGAUA / antisense UAUCCACUGUUUUUGGAAC | 88.1 |
| sense CAAGGACUUCAUGAUCCAG / antisense CUGGAUCAUGAAGUCCUUG | 74.4 |
| sense CAGGGCGGAGACUUCACCA / antisense UGGUGAAGUCUCCGCCCUG | 46.8 |
| sense GAUGGCACAGGAGGAAAGA / antisense UCUUUCCUCCUGUGCCAUC | 84.9 |
| sense AGACUUCACCAGGGGAGAU / antisense AUCUCCCCUGGUGAAGUCU | 87.6 |
| sense CACCAGGGGAGAUGGCACA / antisense UGUGCCAUCUCCCCUGGUG | 73.8 |
| sense AAGGAUUUGGCUACAAAAA / antisense UUUUUGUAGCCAAAUCCUU | 81.9 |
| sense AUAAUUUUGUGGCCUUAGC / antisense GCUAAGGCCACAAAAUUAU | 32.8 |
| sense AACUUCAAACUGAAGCACU / antisense AGUGCUUCAGUUUGAAGUU | 69.2 |
| sense CGUGUAAUCAAGGACUUCA / antisense UGAAGUCCUUGAUUACACG | 88.8 |
| sense CGGUGAGCGCUUCCCCGAU / antisense AUCGGGGAAGCGCUCACCG | 80.2 |
| sense AUCAAGGACUUCAUGAUCC / antisense GGAUCAUGAAGUCCUUGAU | 66.4 |
| sense CUACAAAAACAGCAAAUUC / antisense GAAUUUGCUGUUUUUGUAG | 71.2 |

| Substance | target inhibition [%] |
| --- | --- |
| sense UCAAACUGAAGCACUACGG / antisense CCGUAGUGCUUCAGUUUGA | 18.1 |
| sense AAUUCCAUCGUGUAAUCAA / antisense UUGAUUACACGAUGGAAUU | 87.4 |
| sense UUGGCUACAAAAACAGCAA / antisense UUGCUGUUUUUGUAGCCAA | 68 |
| sense AGGGGAGAUGGCACAGGAG / antisense CUCCUGUGCCAUCUCCCCU | 76.1 |
| sense CAAAUUCCAUCGUGUAAUC / antisense GAUUACACGAUGGAAUUUG | 92.3 |
| sense CCUUAGCUACAGGAGAGAA / antisense UUCUCUCCUGUAGCUAAGG | 77.2 |
| sense ACUUCACCAGGGGAGAUGG / antisense CCAUCUCCCCUGGUGAAGU | 41.9 |
| sense CAUCUACGGUGAGCGCUUC / antisense GAAGCGCUCACCGUAGAUG | 89 |
| sense AGGAGGAAAGAGCAUCUAC / antisense GUAGAUGCUCUUUCCUCCU | 58.9 |
| sense GAGAAAGGAUUUGGCUACA / antisense UGUAGCCAAAUCCUUUCUC | 92.3 |
| sense ACAGGAGGAAAGAGCAUCU / antisense AGAUGCUCUUUCCUCCUGU | 74.5 |
| sense GGAUAAUUUUGUGGCCUUA / antisense UAAGGCCACAAAAUUAUCC | 83.9 |
| sense UGAGAACUUCAAACUGAAG / antisense CUUCAGUUUGAAGUUCUCA | 41.7 |
| sense GAGGAAAGAGCAUCUACGG / antisense CCGUAGAUGCUCUUUCCUC | 58.4 |
| sense ACAGGAGAGAAAGGAUUUG / antisense CAAAUCCUUUCUCUCCUGU | 84.9 |
| sense GCGGAGACUUCACCAGGGG / antisense CCCCUGGUGAAGUCUCCGC | 76.6 |
| sense AUGAUCCAGGGCGGAGACU / antisense AGUCUCCGCCCUGGAUCAU | 48.5 |
| sense AGCUACAGGAGAGAAAGGA / antisense UCCUUUCUCUCCUGUAGCU | 75.8 |
| sense UUGUGGCCUUAGCUACAGG / antisense CCUGUAGCUAAGGCCACAA | 16 |
| sense UAAUCAAGGACUUCAUGAU / antisense AUCAUGAAGUCCUUGAUUA | 87.9 |
